Experimental data: ChEMBL document CHEMBL3045348, “Thiazoles: having diverse biological activities” (Med Chem Res, 2012)

Experiment: Antioxidant activity assessed as trolox equivalents of ABTS radical scavenging activity
Type: functional

Compound: COc1ccc(Nc2nc(N)c(C(=O)c3ccccc3)s2)cc1
- Activity: 0.17 µM
